Test systems include K-562 leukemia; TK-10 renal; DMS 114 small cell lung; SK-MEL-5 melanoma; NCI-H522 lung; RPMI-8226 leukemia; UACC-62 melanoma; LOX IMVI melanoma; KM20L2 colon; XF 498 CNS; CAKI-1 renal; M19-MEL melanoma; HOP-18 NSCLC.
Test in all cases: NCI tumour cell line growth inhibition, 48 h

Twelve molecules from PubChem BioAssay (NCI) can be followed below.

The structures appear in SMILES notation.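 Where inhibition never reached the appropriate level, the endpoint shown equals the highest concentration tested. Otherwise, values were interpolated linearly from a five-concentration, 48-hour dose response in 96-well plates. At the TGI there is no net growth.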

With `COc1cc(C[S+]2CCCC2)c(SC)cc1C[S+]1CCCC1`, the TGI in the experiment with K-562 leukemia, in the experiment with TK-10 renal, in the experiment with DMS 114 small cell lung, with SK-MEL-5 melanoma, in the experiment on NCI-H522 lung and in the experiment with RPMI-8226 leukemia was greater than 100 µM throughout. Moreover, the TGI with UACC-62 melanoma, in the experiment with LOX IMVI melanoma, with KM20L2 colon, in the experiment on XF 498 CNS, in the experiment with CAKI-1 renal and in the experiment on M19-MEL melanoma was greater than 100 µM in each case.
In the case of `Cc1cc(=O)[nH]c(NN2C(Cl)C(=O)C2c2cccc(O)c2)n1` (centres undefined), the TGI was greater than 100 µM in the experiment with K-562 leukemia; greater than 100 µM in the experiment on TK-10 renal; 34.8 µM with DMS 114 small cell lung; greater than 100 µM in the experiment on SK-MEL-5 melanoma; greater than 100 µM with RPMI-8226 leukemia; 17.8 µM in the experiment on UACC-62 melanoma. In addition, the TGI was greater than 100 µM with LOX IMVI melanoma, 98.5 µM in the experiment with KM20L2 colon, greater than 100 µM with M19-MEL melanoma and greater than 100 µM in the experiment with HOP-18 NSCLC.
Consider `O=NN(CCCl)C(=O)NC1CCSc2ccccc21` (centres undefined), for which the TGI in the experiment on K-562 leukemia, in the experiment on DMS 114 small cell lung, with SK-MEL-5 melanoma, with NCI-H522 lung, with RPMI-8226 leukemia and in the experiment on UACC-62 melanoma was greater than 100 µM in each case. The TGI with LOX IMVI melanoma, with KM20L2 colon, in the experiment with XF 498 CNS, with CAKI-1 renal, with M19-MEL melanoma and in the experiment on HOP-18 NSCLC was greater than 100 µM in each case.
With `C[C@@H]1C[C@H]2[C@@H]3CCC4=CC(=O)C=C[C@]4(C)[C@@]3(Cl)[C@@H](Cl)C[C@]2(C)[C@@]1(O)C(=O)COP(=O)(O)O`, the TGI in the experiment with K-562 leukemia, in the experiment with TK-10 renal, in the experiment on SK-MEL-5 melanoma, in the experiment on NCI-H522 lung, in the experiment with RPMI-8226 leukemia and in the experiment on UACC-62 melanoma was greater than 100 µM each time. Moreover, the TGI in the experiment with LOX IMVI melanoma and with CAKI-1 renal was greater than 100 µM in each case.
Regarding `Nc1nc(Cl)c(N)c(NC23CC4CC(CC(C4)C2)C3)n1`, the TGI came to 6.87 µM in the experiment on K-562 leukemia; 5.54 µM in the experiment on TK-10 renal; 3.82 µM with SK-MEL-5 melanoma; 4.26 µM in the experiment with NCI-H522 lung; 5.02 µM with RPMI-8226 leukemia; 3.64 µM in the experiment on UACC-62 melanoma. The values for the TGI with LOX IMVI melanoma and in the experiment with CAKI-1 renal were greater than 100 µM and 3.84 µM, respectively.
Regarding `NC(N)=NCCN=C(N)N`, the TGI in the experiment with K-562 leukemia, in the experiment with TK-10 renal, with SK-MEL-5 melanoma, with NCI-H522 lung, with RPMI-8226 leukemia and in the experiment with UACC-62 melanoma was greater than 100 µM each time. The TGI in the experiment on LOX IMVI melanoma and in the experiment on CAKI-1 renal was greater than 100 µM throughout.
On to `C[C@]12CC[C@H](O)CC1=CC[C@@H]1[C@@H]2CC[C@]2(C)C(=O)[C@@H](N3CCOCC3)C[C@@H]12`, for which the TGI in the experiment with K-562 leukemia, in the experiment with TK-10 renal, with SK-MEL-5 melanoma, in the experiment with NCI-H522 lung, in the experiment with RPMI-8226 leukemia and in the experiment with UACC-62 melanoma was greater than 100 µM each time. The TGI in the experiment on LOX IMVI melanoma and in the experiment with CAKI-1 renal was greater than 100 µM in each case.
`O=C(CC(=O)Nc1cccc(C(=O)O)c1)Nc1cccc(C(=O)O)c1`: the TGI in the experiment on K-562 leukemia, with TK-10 renal, in the experiment with SK-MEL-5 melanoma, with NCI-H522 lung, in the experiment with RPMI-8226 leukemia and in the experiment on UACC-62 melanoma was greater than 100 µM throughout. Also, the TGI with LOX IMVI melanoma and in the experiment with CAKI-1 renal was greater than 100 µM in each case.
As to `Oc1ccc2ccccc2c1/C=C/c1ccc2c(Br)cc(Br)c(O)c2n1`, the TGI with K-562 leukemia was 22.5 µM; in the experiment on TK-10 renal, 23.2 µM; in the experiment on SK-MEL-5 melanoma, 14.5 µM; in the experiment on NCI-H522 lung it was 14.3 µM; in the experiment on RPMI-8226 leukemia, 41.4 µM; in the experiment on UACC-62 melanoma, 24.2 µM. Further, the TGI is 23 µM in the experiment with LOX IMVI melanoma and 26.7 µM in the experiment on CAKI-1 renal.
`Cc1ccc(S(=O)(=O)Oc2cc(-c3ccccc3)nc3ccccc23)cc1`: the TGI is 34.8 µM in the experiment with K-562 leukemia; 1.24 µM in the experiment on DMS 114 small cell lung; 21.3 µM with SK-MEL-5 melanoma; 3.7 µM in the experiment on NCI-H522 lung; 7.71 µM in the experiment on RPMI-8226 leukemia; 20.7 µM with UACC-62 melanoma. For the same molecule, the TGI in the experiment with LOX IMVI melanoma was greater than 78.5 µM; in the experiment on KM20L2 colon, 3.52 µM; in the experiment on XF 498 CNS, 24.3 µM; in the experiment with M19-MEL melanoma, 40.6 µM; in the experiment with HOP-18 NSCLC, 45.8 µM.
Regarding `CCOC(=O)C1=C(C)N(C)C23OC4(C(=O)OC)CC2c2ccccc2C1N3C4=O` (centres undefined), the TGI in the experiment on K-562 leukemia, in the experiment with TK-10 renal, in the experiment with SK-MEL-5 melanoma, with NCI-H522 lung, in the experiment with RPMI-8226 leukemia and in the experiment with UACC-62 melanoma was greater than 100 µM throughout. For the same molecule, the TGI in the experiment on LOX IMVI melanoma and in the experiment with CAKI-1 renal was greater than 100 µM in each case.
For the molecule `O=C1N=c2ccccc2=C1c1c(O)[nH]c2ccccc12`, the TGI was greater than 100 µM in the experiment with K-562 leukemia; 72.7 µM with TK-10 renal; greater than 100 µM in the experiment with SK-MEL-5 melanoma; 25.6 µM in the experiment with NCI-H522 lung; greater than 100 µM with RPMI-8226 leukemia; 39.2 µM in the experiment on UACC-62 melanoma. The TGI is 49.9 µM in the experiment on LOX IMVI melanoma and greater than 100 µM in the experiment with CAKI-1 renal.
